# Measured values from ChEMBL document CHEMBL5728092, “Benzimidazole derivatives as modulators of ROR-gamma” (2020).
# Target: T1, Nuclear receptor ROR-gamma (Homo sapiens, UniProt P51449)
# T1 sequence (P51449 whole entry): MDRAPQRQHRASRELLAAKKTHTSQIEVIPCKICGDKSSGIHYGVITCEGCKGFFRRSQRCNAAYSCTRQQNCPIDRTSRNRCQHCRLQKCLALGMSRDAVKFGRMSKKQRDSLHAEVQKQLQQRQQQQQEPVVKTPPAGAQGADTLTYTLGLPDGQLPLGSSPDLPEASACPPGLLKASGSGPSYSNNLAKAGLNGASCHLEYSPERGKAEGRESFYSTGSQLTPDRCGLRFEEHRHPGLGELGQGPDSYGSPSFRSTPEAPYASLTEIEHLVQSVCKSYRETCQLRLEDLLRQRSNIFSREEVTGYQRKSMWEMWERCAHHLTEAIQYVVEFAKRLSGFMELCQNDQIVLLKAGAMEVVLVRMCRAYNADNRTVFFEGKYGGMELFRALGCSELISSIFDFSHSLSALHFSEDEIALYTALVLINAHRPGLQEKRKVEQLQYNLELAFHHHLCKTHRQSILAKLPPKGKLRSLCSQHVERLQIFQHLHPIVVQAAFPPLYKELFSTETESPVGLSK
# Assay: Binding Assay : Compounds described herein were tested for ability to bind to RORγ in a cell-free competition assay with commercially available radio-ligand (RL), 25-hydroxy [26,27-3H]-cholesterol (PerkinElmer, Cat. #NET674250UC), for a ligand binding site on a recombinant RORγ Ligand Binding Domain (LBD) protein expressed as a 6×His-Glutathione-S-Transferase (GST) fusion. The assay was performed in 96-well SPA plates (PerkinElmer, Cat. #1450-401) in 50 mM HEPES buffer, pH 7.4, containing 150 mM NaCl, 5 mM MgCl2, 10% (v/v) glycerol, 2 mM CHAPS, 0.5 mM β-octylglucopyranoside and 5 mM DTT. Tested compounds were dissolved in DMSO, and semi-log (3.162×) serial dilutions of the compounds were prepared in the same solvent. Two μL of the DMSO solutions were mixed with 28 μL of 8.6 nM 25-hydroxy [26,27-3H]-cholesterol and 50 μL of 24 nM RORγ LBD. The plate was shaken at 700 rpm for 20 min and incubated for 10 min at rt, after which 40 μL of poly-Lys YSi SPA beads (PerkinElmer, Cat. #RPNQ0010) were added to achieve […] of the beads per well. The plate was incubated on an orbital shaker for 20 min and then for 10 min without agitation at rt. SPA signal for tritium beta radiation was registered on PerkinElmer Microbeta plate reader. Percent inhibition values were calculated based on the high signal obtained with DMSO control and the low signal observed with 10 μM standard RORγ inverse agonist T0901317 (SigmaAldrich, Cat. #T2320). The percent inhibition vs. concentration data were fit into a four-parameter model, and IC50 values were calculated from the fit as the concentrations corresponding to the inflection points on the dose-response curves.
row,Ki,SMILES
1,< 100 nM,CCS(=O)(=O)c1ccc([C@H](CO)NC(=O)c2ccc3c(c2)nc(C2CC2)n3Cc2cccc3c2OC(F)(F)O3)cc1
2,< 100 nM,CCS(=O)(=O)c1ccc(CNC(=O)c2ccc3c(c2)nc(C(F)(F)F)n3Cc2cccc3c2OC(F)(F)O3)[n+]([O-])c1
3,< 100 nM,CCS(=O)(=O)c1ccc([C@H](CO)NC(=O)c2ccc3c(c2)nc(C2(F)CCC2)n3Cc2cccc3c2OC(F)(F)O3)cc1
